Data from US9351955B2, “Compounds and pharmaceutical compositions thereof for the treatment of cystic fibrosis” (Galapagos NV, priority 2013, dated 2016).

Tests used:
Format in all cases: cell-based
CFTR-S549N = molecular target: T1, CFTR-S549N (Homo sapiens, UniProt P13569, S549N); assay: YFP-halide influx assay for the CFTR-S549N; settings: CFTR-S549N mutant; read-out: EC50 measured by YFP-halide influx assay for the CFTR-S549N
T1 construct: expressed in transfected cells
Description: (§1) The YFP halide influx assay measures the functionality of the cystic fibrosis Transmembrane Conductance regulator (CFTR) channels. The assay is used to evaluate the capacity of compounds to increase the channel opening of existing mutant CFTR channels in the membrane. It makes use of the observation that the yellow fluorescent protein (YFP) variant YFP H148Q, I152L, F47L has its fluorescence substantially quenched by halide ions like Cl^− and I^−. (Galietta et al., 2001)
(§2) For this purpose, HEK293-cells are seeded in 96 well plates. During seeding, the cells are reverse-transfected with plasmid vectors that direct the expression of the CFTR G551D mutant and of the YFP reporter. Cells are incubated at 37° C., 5% CO2 for 24 hours so as to allow for sufficient expression of the CFTR protein.
(§3) The I^−-induced quenching of fluorescence is recorded immediately after injection of I^− for 7 seconds. The capacity of a compound to increase the channel opening is directly correlated with the decrease in fluorescence, and is expressed as (1−(fluorescence after 7 seconds (F)/fluorescence before injection (F0))) and an EC50 can be derived from a (1−F/F0) vs compound concentration plot.
(§4) Similar YHA assays were developed for other channel gating defective or channel conductance defective CFTR mutants to determine effect of compound on channel activity. Examples of mutants are G178R, G1349D, S549N, R117H, R334W. This assay is also used for additional class I CFTR mutants, including G542X, W1282X; class II mutants including N1303K, and for class III mutants including S1251N; or wild-type CFTR.

CFTR ΔF508 mutant [1] = molecular target: T2, CFTR ΔF508 mutant (Homo sapiens, UniProt P13569, DEL508-508); assay: YFP-halide influx assay for the CFTR-ΔF508 mutation (384 well, CFBE41o- cells, FDSS/μCell); settings: forskolin 10.67 μM, fluorescence after 36 seconds, read-out: EC50 measured by YFP-halide influx assay for the CFTR-ΔF508
T2 construct: expressed in transfected cells; host or cells: CFBE41o- (adenoviral transduction)
T2 sequence (P13569 with tags, fused parts or gaps DEL508-508): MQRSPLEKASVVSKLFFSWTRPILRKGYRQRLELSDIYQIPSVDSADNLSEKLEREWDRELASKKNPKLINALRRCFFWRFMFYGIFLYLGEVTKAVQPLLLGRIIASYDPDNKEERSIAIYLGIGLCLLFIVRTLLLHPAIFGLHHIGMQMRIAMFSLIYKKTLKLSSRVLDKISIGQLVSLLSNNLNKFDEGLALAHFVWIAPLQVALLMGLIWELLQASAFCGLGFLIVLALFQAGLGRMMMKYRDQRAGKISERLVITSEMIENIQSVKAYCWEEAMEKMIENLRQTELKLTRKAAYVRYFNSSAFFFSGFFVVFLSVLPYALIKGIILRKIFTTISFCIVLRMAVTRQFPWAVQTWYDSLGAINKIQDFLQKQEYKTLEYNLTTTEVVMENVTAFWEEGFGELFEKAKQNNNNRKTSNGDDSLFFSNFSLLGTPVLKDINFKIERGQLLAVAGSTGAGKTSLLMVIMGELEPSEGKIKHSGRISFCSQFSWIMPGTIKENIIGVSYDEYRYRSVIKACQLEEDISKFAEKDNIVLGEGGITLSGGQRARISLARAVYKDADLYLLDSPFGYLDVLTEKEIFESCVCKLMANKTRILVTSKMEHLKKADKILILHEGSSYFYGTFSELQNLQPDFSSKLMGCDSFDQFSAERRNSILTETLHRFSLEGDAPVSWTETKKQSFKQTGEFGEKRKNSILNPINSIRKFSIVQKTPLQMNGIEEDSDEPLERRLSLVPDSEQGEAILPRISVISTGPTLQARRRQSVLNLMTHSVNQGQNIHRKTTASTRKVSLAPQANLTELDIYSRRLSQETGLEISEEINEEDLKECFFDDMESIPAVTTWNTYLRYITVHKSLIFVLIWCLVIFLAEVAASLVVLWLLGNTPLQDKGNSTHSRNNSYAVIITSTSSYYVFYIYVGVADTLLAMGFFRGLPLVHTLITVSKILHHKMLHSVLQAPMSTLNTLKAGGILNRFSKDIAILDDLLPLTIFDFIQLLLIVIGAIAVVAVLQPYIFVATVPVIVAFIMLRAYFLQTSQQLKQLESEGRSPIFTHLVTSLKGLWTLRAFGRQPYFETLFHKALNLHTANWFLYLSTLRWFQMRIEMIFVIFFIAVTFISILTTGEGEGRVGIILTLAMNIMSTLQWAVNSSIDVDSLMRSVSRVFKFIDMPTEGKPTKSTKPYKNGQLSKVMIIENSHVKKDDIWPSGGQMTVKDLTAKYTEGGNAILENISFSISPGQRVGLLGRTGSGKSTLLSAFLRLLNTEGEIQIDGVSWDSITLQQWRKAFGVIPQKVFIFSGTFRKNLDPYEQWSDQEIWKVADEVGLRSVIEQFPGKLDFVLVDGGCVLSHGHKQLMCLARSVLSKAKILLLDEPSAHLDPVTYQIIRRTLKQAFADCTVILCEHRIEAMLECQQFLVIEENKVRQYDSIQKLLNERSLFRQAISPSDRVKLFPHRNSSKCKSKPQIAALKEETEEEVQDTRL
Procedure, shortened: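 CFBE41o- cells were adenovirally transduced with ΔF508 CFTR and the YFP H148Q/I152L reporter. Cells were then held 24 h at 27 °C or treated 24 h at 37 °C with a CFTR modulator. Iodide-induced quench was recorded for 2 min, and EC50 was derived from 1−F/F0 at 36 s against compound concentration.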

CFTR-G1349D = molecular target: T3, CFTR-G1349D (Homo sapiens, UniProt P13569, G1349D); assay: YFP-halide influx assay for the CFTR-G1349D; settings: CFTR-G1349D mutant; read-out: EC50 measured by YFP-halide influx assay for the CFTR-G1349D
T3 construct: expressed in transfected cells
T3 sequence (P13569 whole entry G1349D): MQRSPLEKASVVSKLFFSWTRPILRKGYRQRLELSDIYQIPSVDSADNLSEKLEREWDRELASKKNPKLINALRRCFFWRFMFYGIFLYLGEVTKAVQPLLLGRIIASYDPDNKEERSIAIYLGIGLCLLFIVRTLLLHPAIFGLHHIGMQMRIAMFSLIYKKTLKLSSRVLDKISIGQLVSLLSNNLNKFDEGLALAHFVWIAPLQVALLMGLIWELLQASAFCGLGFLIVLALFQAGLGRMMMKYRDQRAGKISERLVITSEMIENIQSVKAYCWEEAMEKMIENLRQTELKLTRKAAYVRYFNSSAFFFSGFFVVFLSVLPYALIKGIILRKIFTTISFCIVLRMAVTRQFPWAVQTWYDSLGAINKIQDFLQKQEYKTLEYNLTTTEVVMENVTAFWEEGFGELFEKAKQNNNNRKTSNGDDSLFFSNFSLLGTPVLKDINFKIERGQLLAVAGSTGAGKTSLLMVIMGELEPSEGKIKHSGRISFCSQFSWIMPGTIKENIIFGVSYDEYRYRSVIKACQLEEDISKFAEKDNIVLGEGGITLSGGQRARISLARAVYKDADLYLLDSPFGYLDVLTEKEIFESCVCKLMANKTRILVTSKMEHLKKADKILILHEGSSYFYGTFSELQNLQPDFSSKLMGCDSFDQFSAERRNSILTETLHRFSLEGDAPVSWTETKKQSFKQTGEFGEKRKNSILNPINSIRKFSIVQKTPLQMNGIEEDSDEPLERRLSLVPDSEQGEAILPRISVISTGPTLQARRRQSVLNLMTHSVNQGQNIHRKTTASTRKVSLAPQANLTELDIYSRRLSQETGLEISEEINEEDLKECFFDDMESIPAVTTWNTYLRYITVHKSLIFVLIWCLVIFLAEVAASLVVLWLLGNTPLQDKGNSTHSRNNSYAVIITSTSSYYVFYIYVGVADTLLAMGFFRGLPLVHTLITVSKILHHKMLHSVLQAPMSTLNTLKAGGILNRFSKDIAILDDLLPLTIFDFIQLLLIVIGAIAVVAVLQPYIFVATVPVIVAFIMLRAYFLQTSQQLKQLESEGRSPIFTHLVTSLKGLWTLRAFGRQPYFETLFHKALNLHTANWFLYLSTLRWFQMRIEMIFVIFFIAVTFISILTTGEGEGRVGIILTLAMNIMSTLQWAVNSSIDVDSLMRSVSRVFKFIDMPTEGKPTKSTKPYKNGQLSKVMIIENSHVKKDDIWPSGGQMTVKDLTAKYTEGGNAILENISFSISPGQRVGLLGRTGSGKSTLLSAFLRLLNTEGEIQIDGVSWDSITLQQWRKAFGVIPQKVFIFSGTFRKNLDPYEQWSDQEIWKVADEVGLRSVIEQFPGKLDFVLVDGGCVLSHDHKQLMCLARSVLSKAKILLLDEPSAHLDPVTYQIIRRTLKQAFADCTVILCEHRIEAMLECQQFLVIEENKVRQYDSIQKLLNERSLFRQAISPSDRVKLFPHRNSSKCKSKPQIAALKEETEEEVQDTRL
Description: as §1, §2, §3, §4

CFTR ΔF508 mutant [2] = molecular target: T2, CFTR ΔF508 mutant; assay: YFP-halide influx assay for the CFTR-ΔF508 mutation (96 well, CFBE41o- cells); settings: compounds of the invention, 96 well, forskolin 10.67 μM, read-out: EC50 measured by YFP-halide influx assay for the CFTR-ΔF508
Procedure, shortened: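 CFBE41o- cells were adenovirally transduced with CFTR ΔF508 and the halide-sensitive YFP H148Q/I152L. They were then corrected either at 27 °C for 24 h or with a CFTR modulator for 24 h at 37 °C. After iodide injection, YFP quenching over 7 s was expressed as 1−F/F0, and EC50 was derived from the concentration–response plot.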

CFTR G551D mutant = molecular target: T4, CFTR G551D mutant (Homo sapiens, UniProt P13569, G551D); assay: YFP-halide influx assay for the CFTR-G551D mutation (HEK293 cells); settings: HEK293 cells expressing CFTR G551D and YFP reporter; forskolin 10.67 μM; read-out: EC50 measured by YFP-halide influx assay for the CFTR-G551D
T4 construct: expressed in transfected cells; host or cells: HEK293 (reverse transfection with plasmids)
T4 sequence (P13569 whole entry G551D): as the sequence (P13569 whole entry G1349D) above, with G551D, D1349G counted along it
Procedure, shortened: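 HEK293 cells reverse-transfected with CFTR G551D and halide-sensitive YFP, expressed 24 h at 37 °C. Iodide-induced fluorescence quench recorded for 7 s after I^− injection; response as 1−F/F0, EC50 from concentration plot.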

CFTR-G178R = molecular target: T5, CFTR-G178R (Homo sapiens, UniProt P13569, G178R); assay: YFP-halide influx assay for the CFTR-G178R; settings: read-out: EC50 measured by YFP-halide influx assay for the CFTR-G178R
T5 construct: expressed in transfected cells
T5 sequence (P13569 whole entry G178R): as the sequence (P13569 whole entry G1349D) above, with G178R, D1349G counted along it
Description: as §1, §2, §3, §4

CFTR-R117H = molecular target: T6, CFTR-R117H (Homo sapiens, UniProt P13569, R117H); assay: YFP-halide influx assay for the CFTR-R117H; settings: CFTR-R117H mutant; read-out: EC50 measured by YFP-halide influx assay for the CFTR-R117H
T6 construct: expressed in transfected cells
T6 sequence (P13569 whole entry R117H): as the sequence (P13569 whole entry G1349D) above, with R117H, D1349G counted along it
Description: as §1, §2, §3, §4

CFTR ΔF508 = molecular target: T7, CFTR ΔF508 (Homo sapiens, UniProt P13569, DEL508-508); assay: TECC assay, primary bronchial epithelial cells from CF patients homozygous for CFTR ΔF508; settings: primary bronchial epithelial cells, CFTR ΔF508; several values in a cell = repeat determinations
T7 construct: host or cells: primary bronchial epithelial cells from CF patients homozygous for ΔF508, pre-treated with VX809
T7 sequence (P13569 with tags, fused parts or gaps DEL508-508): as the sequence (P13569 with tags, fused parts or gaps DEL508-508) above
Description: 7.2.1. Primary Bronchial Epithelial Cells Protocol
The TECC (Tranepithelial Clamp Circuit, EP-design) assay measures the functionality of the cystic fibrosis Transmembrane Conductance regulator (CFTR) by measuring the short circuit current (ISC) generated over the basolateral and apical membrane of lung epithelial cells. In TECC the transepithelial potential PD and transepithelial resistance (Rt) are measured in an open circuit and transformed to ISC using Ohm's law. 24 wells can be measured simultaneously allowing a higher throughput compared to Ussing chambers.
For this purpose, bronchial epithelial cells isolated from CF patients homozygous for the CFTR ΔF508 mutation (hAEC-CF, Epithelix) are plated on type IV collagen-coated Transwell supports (Costar). Human airway epithelia are generated by provision of an air-liquid interface for 21 days to form well-differentiated polarized cultures that resemble in vivo pseudo-stratified ciliated epithelium (Fulcher et al., 2005). In the case of the homozygous ΔF508 CFTR samples, the differentiated cells are treated with 3 μM VX809 (2626 South Loop West, Suite 225, Houston, Tex. 77054 USA, Cat n#51565) to allow sufficient expression of properly folded CFTR protein on the membrane (48 hours basolateral treatment and 24 hours apical treatment), prior to electrophysiological recordings. […] G551D/ΔF508, differentiated cells are used as such for the recordings.
Information on the compounds can be retrieved on the homozygous ΔF508 CFTR samples looking at increased CFTR activity when compounds are added in an acute mode or in a chronic mode. On G551D/ΔF508 CFTR heterozygous samples compounds are added in an acute mode to the differentiated cells.
For the acute mode, for electrophysiological recording, the human airway epithelia are mounted in the TECC heating plate for electrophysiological measurement and kept at 37° C. The epithelia are bathed in a NaCl-Ringer solution (120 mM NaCl, 25 mM NaHCO3, 1.2 mM CaCl2, 1.2 mM MgCl2, 0.8 mM KH2PO4, 0.8 mM K2HPO4, pH 7.4, 5 mM glucose) on both the basolateral and apical sides. Apical amiloride is used to inhibit the endogenous ENaC currents while forkolin is applied on both apical and basolateral side to stimulate CFTR. After forskolin triggering, compounds are added on both sides to test their potential for increasing CFTR gating. Measurements are done during a 20 minute timeframe with recordings every 2 minutes. The increase in ISC is used as a measure for the increased CFTR activity, EC50 values can be generated by measuring impact of different concentrations of compound on ISC on primary cells, for this purpose each transwell is treated with a different compound concentration. Inh-172, an inhibitor specific for CFTR, is used to test the specificity of the tested compounds.
For the chronic mode, the differentiated cells are treated with 3 μM VX809 (2626 South Loop West, Suite 225, Houston, Tex. 77054 USA, Cat n#51565) and potentiator compounds at different concentrations (48 hours basolateral treatment and 24 hours apical treatment), prior to electrophysiological recordings. For electrophysiological recording, the human airway epithelia are mounted in the TECC heating plate for electrophysiological measurement and kept at 37° C. […]

T1 sequence (P13569 whole entry S549N): as the sequence (P13569 whole entry G1349D) above, with S549N, D1349G counted along it

| SMILES | EC50 (CFTR-S549N) [µM] | EC50 (CFTR ΔF508 mutant [1]) [µM] | EC50 (CFTR-G1349D) [µM] | EC50 (CFTR ΔF508 mutant [2]) [µM] | EC50 (CFTR G551D mutant) [µM] | EC50 (CFTR-G178R) [µM] | EC50 (CFTR-R117H) [µM] | EC50 (CFTR ΔF508) [µM] |
| --- | --- | --- | --- | --- | --- | --- | --- | --- |
| CC1(C)Cc2c(sc(NC(=O)c3cc(C4CC4)[nH]n3)c2C(N)=O)C(C)(C)O1 [Compound 13, N-(3-carbamoyl-5,5,7,7-tetramethyl-5,7-dihydro-4H-thieno[2,3-c]pyran-2-yl)-5-cyclopropyl-1H-pyrazole-3-carboxamide] | 0.158 | 0.00613 | 0.0753 | 0.0179 | 0.198 | 0.0988 | 0.177 | – |
| CC(C)c1cc(C(=O)Nc2sc3c(c2C(N)=O)CC(C)(C)OC3(C)C)n[nH]1 [Compound 14, N-(3-carbamoyl-5,5,7,7-tetramethyl-5,7-dihydro-4H-thieno[2,3-c]pyran-2-yl)-5-isopropyl-1H-pyrazole-3-carboxamide] | 0.253 | 0.00944 | 0.371 | 0.0322 | 0.377 | 0.169 | 0.207 | – |
| CC1(C)Cc2c(sc(NC(=O)c3cc(C(F)(F)F)[nH]n3)c2C(N)=O)C(C)(C)O1 [Compound 15, N-(3-carbamoyl-5,5,7,7-tetramethyl-5,7-dihydro-4H-thieno[2,3-c]pyran-2-yl)-5-(trifluoromethyl)-1H-pyrazole-3-carboxamide] | 0.208 | 0.00272 | 0.0753 | 0.00756 | 0.0775 | 0.0875 | 0.158 | – |
| CC1(C)Cc2c(sc(NC(=O)c3n[nH]cc3Br)c2C(N)=O)C(C)(C)O1 [Compound 33, 4-bromo-N-(3-carbamoyl-5,5,7,7-tetramethyl-5,7-dihydro-4H-thieno[2,3-c]pyran-2-yl)-1H-pyrazole-3-carboxamide] | 0.164 | 0.00693 | 0.116 | 0.004 | 0.092 | 0.0886 | 0.165 | – |
| Cc1[nH]nc(C(=O)Nc2sc3c(c2C(N)=O)CC(C)(C)OC3(C)C)c1Cl [Compound 34, N-(3-carbamoyl-5,5,7,7-tetramethyl-5,7-dihydro-4H-thieno[2,3-c]pyran-2-yl)-4-chloro-5-methyl-1H-pyrazole-3-carboxamide] | 0.444 | 0.0101 | 0.0474 | 0.01 | 0.27 | 0.0422 | 0.301 | – |
| COCc1cc(C(=O)Nc2sc3c(c2C(N)=O)CC(C)(C)OC3(C)C)n[nH]1 [Compound 42, N-(3-carbamoyl-5,5,7,7-tetramethyl-5,7-dihydro-4H-thieno[2,3-c]pyran-2-yl)-5-(methoxymethyl)-1H-pyrazole-3-carboxamide] | 0.508 | 0.0153 | 0.678 | 0.0122 | – | 0.156 | 0.193 | – |
| COCc1c[nH]nc1C(=O)Nc1sc2c(c1C(N)=O)CC(C)(C)OC2(C)C [Compound 105, N-(3-carbamoyl-5,5,7,7-tetramethyl-4H-thieno[2,3-c]pyran-2-yl)-4-(methoxymethyl)-1H-pyrazole-3-carboxamide] | 0.293 | 0.00667 | 0.12 | – | 0.73 | 0.0544 | 0.435 | 0.0544 |
| CC1(C)Cc2c(sc(NC(=O)C3(O)CCOCC3)c2C(N)=O)C(C)(C)O1 [Compound 154, 2-[(4-hydroxytetrahydropyran-4-carbonyl)amino]-5,5,7,7-tetramethyl-4H-thieno[2,3-c]pyran-3-carboxamide] | 2.37 | 0.0625 | 3.33 | – | – | 3.33 | 1.58 | 0.502 |
